Tests used:
nuclear-factor oct-1 = experiment: EMSA of constitutive DNA binding activity in 7OZ/3 cells; type: cell-based, mouse; conditions: 7OZ/3 cells treated with TPCK
Description: 7OZ/3 cells (ATCC No. TIB 158) were cultivated in RPMI-1640 medium (Gibco BRL), supplemented by 10% FCS (Gibco BRL) and 50 μM 2-mercaptoethanol. 2 ml aliquots with approx. 2-3×10^6 of suspended cells was treated with 50 ng/ml PMA (Sigma) for various periods. The treatment was interrupted by immediate centrifugation (5 s in an Eppendorf Microfuge) and cooling on ice. The cell pellets were lysed with 60 μl of a high-salt extraction buffer, containing the non-ionic detergent nonidet P-40 (Baeuerle and Baltimore, 1988b). The supernatant of a 15 minute centrifugation at 13.000 rpm in an Eppendorf Microfuge was analysed by Western blotting and EMSA (electrophoretic mobility shift assay). For SDS-PAGE and Western blotting 30 μl aliquots of the extracts were mixed with 15 μl SDS sample buffer (Laemmli, 1970), boiled and subjected to a SDS-PAGE on 12.5% polyacrylamide minigels (Biorad). The proteins were transferred by using a so-called semi-dry blotting device (Biorad; 1 h at 15V/2.5 mA/cm2) from the gels onto IMMOBILON-P-filter (0.45 μm; Millipore). The efficiency of the blot was checked by protein staining of the filters with Ponceau S (Serva). The filters were blocked overnight in a Tris-buffered saline solution, containing 0,1% (v/v) TWEEN-20 (TBST), 5% low-fat milk powder (Nestle) and 1% BSA. […]

NF-KB [1] = experiment: Activation of NF-KB with TNF-α in various other cell lines; type: cell-based
NF-KB [2] = experiment: EMSA of NF-KB DNA binding activity in total cell extracts of stimulated 7OZ/3 cells; type: cell-based, mouse; conditions: 7OZ/3 cells
Description: 7OZ/3 cells (ATCC No. TIB 158) were cultivated in RPMI-1640 medium (Gibco BRL), supplemented by 10% FCS (Gibco BRL) and 50 μM 2-mercaptoethanol. 2 ml aliquots with approx. 2-3×10^6 of suspended cells was treated with 50 ng/ml PMA (Sigma) for various periods. The treatment was interrupted by immediate centrifugation (5 s in an Eppendorf Microfuge) and cooling on ice. The cell pellets were lysed with 60 μl of a high-salt extraction buffer, containing the non-ionic detergent nonidet P-40 (Baeuerle and Baltimore, 1988b). The supernatant of a 15 minute centrifugation at 13.000 rpm in an Eppendorf Microfuge was analysed by Western blotting and EMSA (electrophoretic mobility shift assay). For SDS-PAGE and Western blotting 30 μl aliquots of the extracts were mixed with 15 μl SDS sample buffer (Laemmli, 1970), boiled and subjected to a SDS-PAGE on 12.5% polyacrylamide minigels (Biorad). The proteins were transferred by using a so-called semi-dry blotting device (Biorad; 1 h at 15V/2.5 mA/cm2) from the gels onto IMMOBILON-P-filter (0.45 μm; Millipore). The efficiency of the blot was checked by protein staining of the filters with Ponceau S (Serva). The filters were blocked overnight in a Tris-buffered saline solution, containing 0,1% (v/v) TWEEN-20 (TBST), 5% low-fat milk powder (Nestle) and 1% BSA. The filter was then incubated for one hour at ambient temperature with anti IkB-α IgG in a dialysed eluate of the IkB-α affinity column and diluted by 1:100 in the blocking buffer. After washing for 30 minutes in TBST the filter was incubated in a 1:4000 solution of goat-anti-rabbit IgG/horseradish-peroxidase conjugate (Biorad) in blocking buffer. After washing for 30 minutes in TBST the filter was treated with ECL detecting reagent (Amersham) and exposed (Kodak XR film, less than 1 minute). For EMSA 2 μl aliquots of the extracts were added to a binding mixture, resulting in a final concentration of […], […], pH 7.9, […] dithiothreitol, […] phenylmethylsulfonylfluoride (PMSF), 0.2% NONIDET P-40, 5% FICOLL, 20 μg BSA, 3 μg Poly (dl-dC) and 10.000 cpm (Cerenkov counting method) of a ^32 P marked double-stranded KB-oligonucleotide probe (Gibco BRL). The specificity of the protein DNA complex was confirmed by competition experiments and supershifting with a polyclonal antibody, recognising the C-terminal 100 amino acids of Rel-A (p65). After 20 minutes of incubation on ice the samples were subjected to electrophoresis on native 4% polyacrylamide gels, run in 0.5× TBE. The dried gels were exposed (Kodak XR film, -70° C., overnight).
Cell cultures, extract production, SDS-PAGE and Western blotting were carried out according to example 1. The cells were […] in 25 μm TPCK or TLCK (both from Sigma), and pre-treated in dimethylsulfoxide (DMSO). The control cultures received an equivalent amount of DMSO.
The results of the experiments are shown in FIG. 4: A: Effect of TPCK on the induction by PMA. The cells were treated without (left panel) or in presence of TPCK with PMA for the stipulated periods. The cell extracts were tested for the DNA binding activity of NF-KB using EMSA (top panel) and for the IkB-α protein quantity using Western blotting (bottom panel). The position of the NF-KB-DNA complex in a section of a fluorogram of a native gel is shown by a filled arrowhead. […] B: Effect of TPCK on the activation of NF-KB by IL-1β (I), LPS (L) and PMA (P) in 7OZ/3 cells; in control cells (Co). The cells were treated with TPCK for 10 minutes before stimulation (lanes 6-8) or for an additional 10 minutes after stimulation (lanes 10-12; 30 minutes with IL-1β and PMA or 60 minutes with LPS). The total cell extracts of control cells (lanes 1-4) and cells treated with TPCK (lanes 5-12) were tested for the DNA binding activity of NF-KB using EMSA; a section of a fluorogram of a native gel is shown. […] C: Effect of TLCK on the activation of NF-KB by PMA. […]

IkB-α [3] = experiment: Western blotting of IkB-α in extracts of 7OZ/3 cells; type: cell-based, mouse
7OZ/3 cells = conditions: 10 μg/ml; cited from earlier work
IkB-α [4] = experiment: Western blot analysis of IkB-α in HeLa cells after TNF-α stimulation; type: cell-based, human
Description: The 7OZ/3 cells were treated with 50 E/ml IL-1β (Boehringer Mannheim) or with 15 μg/ml LPS (Sigma). Human HeLa cells were cultivated in DMEM, supplemented with 10%FCS and 1% L-glutamine and treated with 200 E/ml human recombinant TFN-α (genzyme).
As protease inhibitors Z-Ile-Glu(Ot-Bu)-Ala-leucinal (NBIG) and the chemically related substance Z-Leu-leucinal (Cbz-L-L) were used (Z standing for benzyloxycarbonyl).
In the figure the slower migrating form of IkB-α is identified with an asterisk.

IL-8 = IL-8 in the cell supernatant of stimulated HeLa cells (ELISA); type: cell-based, human; conditions: 120', stimulus alone (TNF 200 E/ml or PMA 50 ng/ml)
Description: (§1) The principle of the test arrangement corresponded to that of the previous examples.
(§2) The cells were stimulated--with or without 30 minutes of pre-treatment with 100 μmol NBIG--with TNF (200 E/ml) or with PMA (50 ng/ml) and the concentration of IL-6 or IL-8 was measured in the cell supernatant at various intervals using ELISA (British Biotechnology Products Ltd.).

IL-6 = IL-6 in the cell supernatant of stimulated HeLa cells (ELISA); type: cell-based, human; conditions: stimulus alone (TNF 200 E/ml or PMA 50 ng/ml)
Description: as §1, §2

Molecule: Cc1ccc(S(=O)(=O)N[C@@H](Cc2ccccc2)C(=O)CCl)cc1 [TPCK, p-tosyl-L-phenylalaninechloromethylketone]
- constitutive DNA binding activity, including nuclear-factor oct-1 (nuclear-factor oct-1): not significantly influenced
- activation of NF-KB with TNF-α (NF-KB [1]): effective in preventing
- ID50 (NF-KB-DNA binding activity) (NF-KB [2]; PMA treatment): approx. 8 μM
- activation of NF-KB by IL-IB and LPS (NF-KB [2]; inhibitor before stimulation): effective in preventing
- suppression of NF-KB-DNA binding activity (NF-KB [2]; one-hour treatment with 25 μM, subsequent PMA treatment): completely suppress
- NF-KB activation, inhibitor given after stimulation (NF-KB [2]; treatment after stimulation with PMA, IL-1 or LPS): hardly impaired
- degradation of IkB-α in PMA treated cells (Western blot) (IkB-α [3]; 7OZ/3 cells, TPCK, PMA): completely prevent

Molecule: C[C@@H]1C[C@@H]([C@H](O)CC2CC(=O)NC(=O)C2)C(=O)[C@@H](C)C1 [cycloheximide]
- binding of NF-KB to DNA (NF-KB [2]; one-hour treatment with cycloheximide, no PMA): induced only slightly
- reoccurrence of IkB-α 40 minutes after PMA treatment (IkB-α [3]; 7OZ/3 cells pre-treated with cycloheximide, then PMA): prevents
- IkB-α detected by Western blotting (IkB-α [3]; 7OZ/3 cells, one-hour treatment with cycloheximide, no PMA): large amounts
- half-life of IkB-α (IkB-α [3]; cycloheximide-treated 7OZ/3 cells, without PMA, quantitative Western blotting): approx. 138 minutes
- inhibition of protein synthesis (7OZ/3 cells): 90%

Molecule: C=C1[C@@H](O)[C@@H]2O[C@]3(CC[C@H](/C=C/[C@@H](C)[C@@H]4CC(C)=C[C@@]5(O[C@H](C[C@@](C)(O)C(=O)O)CC[C@H]5O)O4)O3)CC[C@H]2O[C@@H]1[C@@H](O)C[C@H](C)[C@H]1O[C@@]2(CCCCO2)CC[C@H]1C [okadaic acid]
- quicker migrating non-phosphorylated form of IkB-α (IkB-α [4]; 100 nM, together with NBIG): disappear completely

Molecule: IL-1β: inflammatory cytokine used as inducer of NF-KB
- decay of IkB-α (IkB-α [3]; 7OZ/3 cells): induced a decay

Molecule: TNF-α
- decay of IkB-α (IkB-α [4]; HeLa cells): induced a decay
- time after stimulation at which most of the IkB-α had decayed (IkB-α [4]; HeLa cells): ≤ 5 min
- IL-8 (IL-8): 52 pg/mL
- IL-6 (IL-6; 15'): 875 pg/mL
- IL-6 (IL-6; 120'): 6750 pg/mL
